Reference: the supplement of paper PMC10307832

Columns and labels:
Experiment in all cases: relative viability (nuclei count vs DMSO), 5 days (fraction); higher = more cells survive
Palbociclib + Vorinostat = compound: CC(=O)c1c(C)c2cnc(Nc3ccc(N4CCNCC4)cn3)nc2n(C2CCCC2)c1=O [Palbociclib] + O=C(CCCCCCC(=O)Nc1ccccc1)NO [Vorinostat] (partner 1 µM)
Summary of the method: (§1)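 The day after seeding in 1536-well plates, lung cancer cell lines were treated by pin tool with a single drug, or with a fixed anchor-drug dose together with five library-drug doses (not always all listed) in √10 steps. After 5 days, a combined fix-and-stain solution (final 0.05% Triton X-100, 1% formaldehyde, 1 ug/ml Hoechst) was added. Nuclei counted on 4× images gave relative viability as treated counts over vehicle counts, reported as the median of duplicate plates.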

Palbociclib + Phenformin = compound: CC(=O)c1c(C)c2cnc(Nc3ccc(N4CCNCC4)cn3)nc2n(C2CCCC2)c1=O [Palbociclib] + N=C(N)NC(=N)NCCc1ccccc1 [Phenformin] (partner 250 µM)
Summary of the method: as §1

Palbociclib + Luminespib = compound: CC(=O)c1c(C)c2cnc(Nc3ccc(N4CCNCC4)cn3)nc2n(C2CCCC2)c1=O [Palbociclib] + CCNC(=O)c1noc(-c2cc(C(C)C)c(O)cc2O)c1-c1ccc(CN2CCOCC2)cc1 [Luminespib] (partner 0.01 µM)
Summary of the method: as §1

Palbociclib + Dasatinib = compound: CC(=O)c1c(C)c2cnc(Nc3ccc(N4CCNCC4)cn3)nc2n(C2CCCC2)c1=O [Palbociclib] + Cc1nc(Nc2ncc(C(=O)Nc3c(C)cccc3Cl)s2)cc(N2CCN(CCO)CC2)n1 [Dasatinib] (partner 0.075 µM)
Summary of the method: as §1

Row | Cell Line | relative viability (Palbociclib + Vorinostat; first compound 0.01 µM) | relative viability (Palbociclib + Vorinostat; first compound 0.03162 µM) | relative viability (Palbociclib + Vorinostat; first compound 0.1 µM) | relative viability (Palbociclib + Vorinostat; first compound 0.3162 µM) | relative viability (Palbociclib + Vorinostat; first compound 1 µM) | relative viability (Palbociclib + Phenformin; first compound 0.01 µM) | relative viability (Palbociclib + Phenformin; first compound 0.03162 µM) | relative viability (Palbociclib + Phenformin; first compound 0.1 µM) | relative viability (Palbociclib + Phenformin; first compound 0.3162 µM) | relative viability (Palbociclib + Phenformin; first compound 1 µM) | relative viability (Palbociclib + Luminespib; first compound 0.01 µM) | relative viability (Palbociclib + Luminespib; first compound 0.03162 µM) | relative viability (Palbociclib + Luminespib; first compound 0.1 µM) | relative viability (Palbociclib + Luminespib; first compound 0.3162 µM) | relative viability (Palbociclib + Luminespib; first compound 1 µM) | relative viability (Palbociclib + Dasatinib; first compound 0.01 µM) | relative viability (Palbociclib + Dasatinib; first compound 0.03162 µM) | relative viability (Palbociclib + Dasatinib; first compound 0.1 µM) | relative viability (Palbociclib + Dasatinib; first compound 0.3162 µM) | relative viability (Palbociclib + Dasatinib; first compound 1 µM)
1 | NCI-H322M | 0.837 | 0.784 | 0.602 | 0.55 | 0.454 | 0.741 | 0.605 | 0.553 | 0.502 | 0.409 | 0.699 | 0.729 | 0.647 | 0.657 | 0.475 | 0.278 | 0.216 | 0.207 | 0.209 | 0.198
2 | NCI-H358 | 0.73 | 0.475 | 0.413 | 0.449 | 0.199 | 0.308 | 0.278 | 0.197 | 0.238 | 0.106 | 0.325 |  | 0.176 | 0.308 | 0.134 | 0.156 | 0.179 | 0.101 | 0.0972 | 0.0795
3 | NCI-H441 | 0.817 | 0.708 | 0.589 | 0.569 | 0.405 | 0.896 | 0.627 | 0.623 | 0.57 | 0.35 | 0.317 | 0.371 | 0.38 | 0.26 | 0.229 | 0.518 | 0.525 | 0.522 | 0.362 | 0.221
4 | NCI-H460 | 0.669 | 0.604 | 0.454 | 0.369 | 0.115 | 0.537 | 0.411 | 0.409 | 0.333 | 0.149 | 0.0282 | 0.0413 | 0.0309 | 0.0231 | 0.026 | 0.459 | 0.429 | 0.392 | 0.314 | 0.162
5 | NCI-H520 | 0.728 | 0.57 | 0.565 | 0.47 | 0.372 | 0.5 | 0.321 | 0.348 | 0.407 | 0.227 | 0.203 | 0.214 | 0.225 | 0.216 | 0.222 | 0.206 | 0.458 | 0.142 | 0.153 | 0.171
6 | NCI-H522 | 0.912 | 0.536 | 0.906 | 1.03 | 0.802 | 0.623 | 0.592 | 0.586 | 0.644 | 1.19 | 1.2 |  | 1.19 | 1.19 | 1.18 | 0.896 | 0.658 | 0.809 | 0.922 | 0.914
7 | NCI-H596 | 0.656 | 0.655 | 0.589 | 0.768 | 0.57 | 0.982 |  | 0.757 | 0.712 | 0.673 | 0.91 |  | 0.968 | 0.958 | 1.04 | 0.606 |  | 0.551 | 0.599 | 0.613
8 | NCI-H647 | 0.576 | 0.313 | 0.616 | 0.409 | 0.458 | 0.639 | 0.382 | 0.379 | 0.464 | 0.257 | 0.0934 | 0.13 | 0.137 | 0.209 | 0.253 | 0.177 | 0.142 | 0.143 | 0.163 | 0.139
9 | NCI-H650 | 0.537 |  | 0.366 | 0.359 | 0.314 | 0.447 | 0.371 | 0.403 | 0.352 | 0.316 | 0.921 | 0.613 | 0.629 | 0.793 | 0.609 | 0.516 | 0.328 | 0.355 | 0.398 | 0.289
10 | NCI-H661 | 0.748 | 0.598 | 0.561 | 0.433 | 0.425 | 0.264 | 0.29 | 0.258 | 0.279 | 0.282 | 0.868 | 0.789 | 0.597 | 0.523 | 0.416 | 0.901 | 0.793 | 0.476 | 0.533 | 0.435
11 | NCI-H727 | 1.25 | 1.03 | 1.01 | 1.01 | 0.909 | 0.472 | 0.453 | 0.422 | 0.467 | 0.362 | 0.309 | 0.293 | 0.285 | 0.352 | 0.405 | 0.342 | 0.302 | 0.299 | 0.242 | 0.218
12 | NCI-H838 | 0.71 | 0.623 | 0.543 | 0.478 | 0.314 | 0.628 | 0.562 | 0.402 | 0.467 | 0.202 | 0.274 | 0.346 | 0.267 | 0.257 | 0.265 | 0.278 | 0.318 | 0.213 | 0.22 | 0.213
13 | NCI-H1355 | 0.619 | 0.578 | 0.548 | 0.629 | 0.465 | 0.511 | 0.39 | 0.387 | 0.385 | 0.26 | 0.74 | 0.776 | 0.811 | 0.568 | 0.521 | 0.774 | 0.587 | 0.588 | 0.569 | 0.384
14 | NCI-H1395 | 0.844 | 0.705 | 0.602 | 0.724 | 0.496 | 0.408 | 0.408 | 0.368 | 0.412 | 0.41 | 0.661 | 0.561 | 0.631 | 0.668 | 0.587 | 0.399 | 0.382 | 0.345 | 0.325 | 0.333
15 | NCI-H1437 | 0.873 | 0.74 | 0.651 | 0.493 | 0.35 | 0.321 | 0.445 | 0.258 | 0.237 | 0.199 | 1.16 | 1.07 | 0.961 | 0.89 | 0.666 | 0.382 | 0.344 | 0.425 | 0.34 | 0.231
16 | NCI-H1650 | 0.607 | 0.558 | 0.523 | 0.39 | 0.31 | 0.45 | 0.251 | 0.289 | 0.348 | 0.233 | 0.178 | 0.211 | 0.186 | 0.186 | 0.172 | 0.29 | 0.287 | 0.275 | 0.275 | 0.208
